What was measured:
[1] = tested on: Fgfr3^N534K/+ mice (hypochondroplasia mouse model); test: Novel object location (NOL), spatial memory, HCH mouse model; format: in vivo
Method: 4 months old Fgfr3^N534K/+ mice and Fgfr3^A385E/+ mice received daily subcutaneous administration of (−)-epicatechin (0.15 mg/kg) or vehicle (HcL 3.5 mM, DMSO 2%) for at least seven days. For habituation and testing NOR and NOL, injection was performed 1 hour before testing phase. Timing of injection for the different tests: NOL at 7 days, NOR at 14 days, TST: at 22 days and FST at 24 days. For the novel object location task, all procedures were identical to the novel object recognition task except that during the testing phase, rather than presenting a novel object, mice encountered both familiar objects, with one object located in a different place in the arena. The time and frequency of exploration of the novel/relocated object is measured as an index of memory. Behavior was scored on videos by two observers blind to treatment and the total exploration time of the objects was quantified in the testing phases. To confirm the direct implication of brain FGFR3 in cognitive disorders observed in Fgfr3^N534K/+ mice, we decided to treat mice with (−)-epicatechin bottle treatment. The animals were treated with bottle (−)-epicatechin (3 mg/L) during 4 weeks before behavioural tests.

[2] = tested on: Fgfr3^N534K/+ mice (hypochondroplasia mouse model); test: Novel object recognition (NOR), episodic memory, HCH mouse model; format: in vivo
Method: (§1) 4 months old Fgfr3^N534K/+ mice and Fgfr3^A385E/+ mice received daily subcutaneous administration of (−)-epicatechin (0.15 mg/kg) or vehicle (HcL 3.5 mM, DMSO 2%) for at least seven days. For habituation and testing NOR and NOL, injection was performed 1 hour before testing phase. Timing of injection for the different tests: NOL at 7 days, NOR at 14 days, TST: at 22 days and FST at 24 days.
(§2) We used a modified version of the NOR task as described in Glatigny et al., 2019. Mice were transported a short distance from the holding mouse facility to the testing room in their home cages and left undisturbed for at least one hour before the beginning of the test. The testing room was lit with two 60-W light bulbs and behavior sessions were recorded with a camera above the testing arena (grey plastic box (60×40×32 cm)). […] The objects elicited equal levels of exploration as determined in pilot experiments and training phase. […]
(§3) The following behaviors were considered as exploration of the objects: sniffing, licking, or touching the object with the nose or with the front legs or directing the nose to the object at a distance≤1 cm. Investigation was not scored if the mouse was on top of the object or completely immobile. The discrimination index was calculated as (time spent exploring the new object-time spent exploring the familiar object)/(total time spent exploring both objects). […]

[3] = tested on: Fgfr3^A385E/+ mice (CAN mouse model); test: Novel object recognition (NOR), CAN mouse model; format: in vivo; details: subcutaneous injections for 7 days at least; 4-month-old mice
Method: as §1, §2, §3

[4] = tested on: Fgfr3^A385E/+ mice (CAN mouse model); test: Forced swim test (FST), CAN mouse model; format: in vivo; details: subcutaneous injections for 7 days at least; 4-month-old mice
Method: (§4) 4 months old Fgfr3^N534K/+ mice and Fgfr3^A385E/+ mice received daily subcutaneous administration of (−)-epicatechin (0.15 mg/kg) or vehicle (HcL 3.5 mM, DMSO 2%) for at least seven days. For habituation and testing NOR and NOL, injection was performed 1 hour before testing phase. Timing of injection for the different tests: NOL at 7 days, NOR at 14 days, TST: at 22 days and FST at 24 days. This test is based on a similar observation than the TST. Each mouse is placed in a cylinder (height: 25 cm and diameter: 10 cm) filled with water (23-25° C.). Mice were tested for 5 min, and the time spent immobile (behavioral despair) was quantified.

[5] = tested on: Fgfr3^N534K/+ mice (hypochondroplasia mouse model); test: Tail suspension test (TST), HCH mouse model; format: in vivo; details: bottle treatment 3 mg/L, 4 weeks; adult mice
Method: This test is based on the observation that rodents, after initial escape-oriented movements, develop an immobile posture when placed in an inescapable stressful situation. Each mouse is hung in an uncontrollable fashion by their tail at above 25 cm from the floor. Mice were tested for 5 min, and the time spent immobile was quantified. To confirm the direct implication of brain FGFR3 in cognitive disorders observed in Fgfr3^N534K/+ mice, we decided to treat mice with (−)-epicatechin bottle treatment. The animals were treated with bottle (−)-epicatechin (3 mg/L) during 4 weeks before behavioural tests.

[6] = tested on: Fgfr3^N534K/+ mice (hypochondroplasia mouse model); test: Forced swim test (FST), HCH mouse model; format: in vivo; details: adult mice
Method: as §4, with “quantified. To confirm the direct implication of brain FGFR3 in cognitive disorders observed in Fgfr3^N534K/+ mice, we decided to treat mice with (−)-epicatechin bottle treatment. The animals were treated with bottle (−)-epicatechin (3 mg/L) during 4 weeks before behavioural tests.” for “quantified.”

[7] = tested on: Fgfr3^N534K/+ mice (hypochondroplasia mouse model); test: Morris water maze (MWM), spatial memory, HCH mouse model; format: in vivo; details: bottle treatment 3 mg/L, 4 weeks; adult mice
Method: The Morris water maze (MWM) is a test of spatial learning for mice that relies on distal cues to navigate from a start location to locate a submerged escape platform. Spatial learning is assessed across repeated trials during 8 days and reference memory is determined by location of the platform area. To confirm the direct implication of brain FGFR3 in cognitive disorders observed in Fgfr3^N534K/+ mice, we decided to treat mice with (−)-epicatechin bottle treatment. The animals were treated with bottle (−)-epicatechin (3 mg/L) during 4 weeks before behavioural tests.

[8] = tested on: Fgfr3^N534K/+ mice (hypochondroplasia mouse model); test: Contextual fear conditioning (CFC), associative memory, HCH mouse model; format: in vivo; details: bottle treatment 3 mg/L, 4 weeks; adult mice
Source text: We performed on 4-month-old male mice a test related to the hippocampus associative memory (one-trial contextual fear conditioning, CFC). This test allows us to understand the ability of mice to remember an event associated with memory integration. During this behavorial test, we assess the freezing time of the mice, the mutant mice baseline was similar to control littermates during the training phase (p=0,2303). […] To confirm the direct implication of brain FGFR3 in cognitive disorders observed in Fgfr3^N534K/+ mice, we decided to treat mice with (−)-epicatechin bottle treatment. The animals were treated with bottle (−)-epicatechin (3 mg/L) during 4 weeks before behavioural tests.

[9] = tested on: Fgfr3^N534K/+ mice (hypochondroplasia mouse model); test: Bar beam, locomotion and fine coordination, HCH mouse model; format: in vivo; details: bottle treatment 3 mg/L, 4 weeks; adult mice
Source text: The bar beam is a test to measure fine motor coordination and balance in mice by assessing if the mice stay upright and walk across an elevated narrow beam to a safe platform. This test takes place over 2 consecutive days and we measured the time it takes for the mouse to traverse the beam and the maximum distance done To confirm the direct implication of brain FGFR3 in cognitive disorders observed in Fgfr3^N534K/+ mice, we decided to treat mice with (−)-epicatechin bottle treatment. The animals were treated with bottle (−)-epicatechin (3 mg/L) during 4 weeks before behavioural tests.

[10] = tested on: Fgfr3^Y367C/+ mouse model; details: cited from earlier work
FGFR3 = FGFR3 (Homo sapiens, UniProt P22607); details: reason for selection; no test described; cited from earlier work
Sequence of FGFR3 (P22607 23-806): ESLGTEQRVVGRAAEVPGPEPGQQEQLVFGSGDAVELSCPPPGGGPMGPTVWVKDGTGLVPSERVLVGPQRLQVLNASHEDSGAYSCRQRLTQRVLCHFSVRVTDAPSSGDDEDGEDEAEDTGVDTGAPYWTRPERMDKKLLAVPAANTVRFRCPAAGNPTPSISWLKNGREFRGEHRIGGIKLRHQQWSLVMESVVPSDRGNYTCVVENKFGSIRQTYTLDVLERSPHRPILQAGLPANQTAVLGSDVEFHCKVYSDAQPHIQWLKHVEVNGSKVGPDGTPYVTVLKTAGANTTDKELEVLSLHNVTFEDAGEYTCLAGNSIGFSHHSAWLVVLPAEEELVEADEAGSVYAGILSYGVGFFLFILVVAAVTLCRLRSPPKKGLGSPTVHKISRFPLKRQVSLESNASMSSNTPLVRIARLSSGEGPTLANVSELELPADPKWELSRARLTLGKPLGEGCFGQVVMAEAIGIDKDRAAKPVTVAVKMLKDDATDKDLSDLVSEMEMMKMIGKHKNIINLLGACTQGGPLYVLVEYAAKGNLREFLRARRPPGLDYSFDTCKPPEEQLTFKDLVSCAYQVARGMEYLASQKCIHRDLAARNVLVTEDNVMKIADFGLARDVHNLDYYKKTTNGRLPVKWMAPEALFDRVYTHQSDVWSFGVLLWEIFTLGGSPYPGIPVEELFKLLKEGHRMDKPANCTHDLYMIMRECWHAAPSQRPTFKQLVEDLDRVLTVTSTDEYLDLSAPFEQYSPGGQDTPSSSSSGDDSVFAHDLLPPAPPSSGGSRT

[11] = bottle treatment 3 mg/L, 4 weeks, adult mice
[12] = subcutaneous injection, in vivo and/or in vitro

## Oc1cc(O)c2c(c1)O[C@H](c1ccc(O)c(O)c1)[C@H](O)C2 [(−)-epicatechin, (2R,3R)-2-(3,4-dihydroxyphenyl)-3,4-dihydro-2H-chromene-3,5,7-triol]
[1]; [11]
  spatial memory deficits (NOL): rescue
[1]; daily subcutaneous 0.15 mg/kg, at least seven days, 4 months old male mice, vs control littermates p=0,9538
  spatial memory deficits (NOL), exploration of relocated object: sufficient to restore
[2]; [11]
  episodic memory deficits (NOR): rescue
[2]; daily subcutaneous 0.15 mg/kg, at least seven days, 4 months old male mice, vs control littermates p=0,8697
  episodic memory deficits (NOR), exploration of novel object: sufficient to restore
[3]
  memory deficits in the NOR paradigm: reversed the memory deficits
[4]
  coping strategy to an inescapable stress (FST): reestablished the coping strategy
[5]
  antidepressant effect (TST): rescue
[6]; bottle treatment 3 mg/L, 4 weeks
  antidepressant effect (FST): rescue
[6]; subcutaneous injection, FST and TST of FIG. 1
  antidepressant effect: rescue
[7]
  spatial memory deficits (Morrys Water Maze): rescue
[8]
  associative memory deficits (CFC): rescue
[9]
  locomotion and coordination fine (Bar beam): rescue
[10]; FGFR3 related Achondroplasia mouse model (Martin et al 2021)
  efficacy in skeletal anomalies: showed the efficacy
[10]; [12]
  functional activation of the FGFR3 downstream signalling pathway: sufficient to abolish or eliminating
  impairment of the ciliogenesis: restore
FGFR3
  binding specificity for FGFR3: highest binding specificity

— patent US20250041262A1, “COMPOSITIONS FOR THE TREATMENT OF FGFR3-RELATED COGNITIVE DEFICITS WITH A CATECHIN” (INSTITUT NATIONAL DE LA SANTÉ ET DE LA RECHERCHE MÉDICALE, priority 2021, published 2025)
